Values after ≈ are worked out from the molar mass of the structure shown.
Experiments:
Assay type in all cases: functional, cell-based
Conditions in all cases: Homo sapiens
A549 = test: Inhibitory concentration against A549 (lung cancer) cell line
DLD-1 = test: Inhibitory concentration against DLD-1 (colon cancer) cell line
HeLa = test: Inhibitory concentration against HeLa (cervical cancer) cell line
K562 = test: Inhibitory concentration against K562 (leukemia) cell line

SMILES | IC50 (A549) [ng/mL] | IC50 (DLD-1) [ng/mL] | IC50 (HeLa) [ng/mL] | IC50 (K562) [ng/mL]
COc1cc2c3c(c4ccc(O)c(OC)c4c2cc1OC)[C@H](O)[C@@H]1CCCN1C3 | 0.5 (≈ 1.26 nM) | 0.8 (≈ 2.02 nM) | 0.1 (≈ 0.253 nM) | 0.5 (≈ 1.26 nM)
COc1cc2c3c(c4ccc(O)cc4c2cc1OC)[C@H](O)[C@@H]1CCCN1C3 [TYLOPHORIDICINE E] | 0.4 (≈ 1.09 nM) | 0.5 (≈ 1.37 nM) | 0.8 (≈ 2.19 nM) | 0.4 (≈ 1.09 nM)
